# Assay results published in patent US11098058B2, “Bicyclic ketone compounds and methods of use thereof” (Genentech, Inc., priority 2017, dated 2021).
# Molecular target: human RIP1 kinase domain (2-375) (Homo sapiens (Human), UniProt Q13546)
# Details: RIP1 kinase inhibition, tight-binding apparent Ki; 50 nM enzyme, 50 μM ATP, 2 hours incubation
# Experimental: RIP1 Kinase Inhibition Assays (Biochemical Assay)
# The ability of the receptor interacting protein kinase (RIPK1) to catalyze the hydrolysis of adenosine-5′-triphosphate (ATP) is monitored using the Transcreener ADP (adenosine-5′-diphosphate) assay (BellBrook Labs). Purified human RIP1 kinase domain (2-375) (50 nM) derived from a baculovirus-infected insect cell expression system is incubated with test compounds for 2 hours in 50 mM Hepes buffer (pH 7.5) containing 30 mM MgCl2, 1 mM dithiothreitol, 50 μM ATP, 0.002% Brij-35, and 0.5% dimethyl sulfoxide (DMSO). […] The tracer bound to the antibody is displaced by the ADP generated during the RIP1K reaction, which causes a decrease in fluorescence polarization that is measured by laser excitation at 633 nm with a FP microplate reader M1000. Fractional activity was plotted against test article concentration. Using Genedata Screener software (Genedata; Basel, Switzerland), the data were fit to the tight-binding apparent inhibition constant (Ki^app) Morrison equation [Williams, J. W. and Morrison, J. F. (1979) The kinetics of reversible tight-binding inhibition. […] The following equation was used to calculate fractional activity and Ki^app:
# [formula] where [E]T and [I]T are the total concentrations of active enzyme and test article, respectively.
# Chain of human RIP1 kinase domain (2-375) (Q13546 2-375): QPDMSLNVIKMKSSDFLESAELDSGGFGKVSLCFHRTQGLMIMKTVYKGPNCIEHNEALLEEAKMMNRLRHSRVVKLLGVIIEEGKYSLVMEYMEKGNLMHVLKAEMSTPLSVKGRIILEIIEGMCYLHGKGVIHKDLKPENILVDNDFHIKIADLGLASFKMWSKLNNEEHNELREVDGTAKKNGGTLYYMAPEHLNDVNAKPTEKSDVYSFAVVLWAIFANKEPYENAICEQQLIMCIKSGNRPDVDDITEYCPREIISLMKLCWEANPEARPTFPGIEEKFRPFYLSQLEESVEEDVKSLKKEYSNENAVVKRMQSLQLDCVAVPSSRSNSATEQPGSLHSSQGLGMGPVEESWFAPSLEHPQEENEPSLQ
row,Ki [nM],SMILES
1,3.1,"O=C(c1nc2n(n1)[C@H](c1c(F)cccc1F)C[C@@H]2F)C1CC1 (single isomer, unassigned) [Example 94]"
2,30,"Cn1cc([C@@H]2C[C@H](F)c3nc(C(=O)C4CC4)nn32)cn1 (single isomer, unassigned) [Example 152]"
3,230,"O=C(c1nc2n(n1)[C@H](c1ncccc1F)C[C@H]2F)C1CC1 (single isomer, unassigned) [Example 151]"
4,9,"O=C(c1nc2n(n1)[C@H](c1ccc(F)cc1)C[C@@H]2F)C1CC1 (single isomer, unassigned) [Example 85]"
5,3.4,"O=C(c1nc2n(n1)[C@H](c1ccccc1)C[C@@H]2F)C1(CF)CC1 [Example 79, [1-(fluoromethyl)cyclopropyl]-[(5S,7S)-7-fluoro-5-phenyl-6,7-dihydro-5H-pyrrolo[1,2-b][1,2,4]triazol-2-yl]methanone]"
6,790,"O=C(c1nc2n(n1)[C@@H](c1ccccc1)C[C@H]2Cl)C1CC1 (single isomer, unassigned) [Example 115]"
7,4,"O=C(c1nc2n(n1)[C@H](c1ccccc1F)C[C@@H]2F)C1CC1 (single isomer, unassigned) [Example 62]"
8,9,"O=C(c1nc2n(n1)[C@H](c1ccccc1)C[C@@H]2F)[C@H]1C[C@@H]2CC[C@H]1O2 (single isomer, unassigned) [Example 141]"
9,32,"Cn1cc(Cl)c([C@@H]2C[C@H](F)c3nc(C(=O)C4CC4)nn32)n1 [Example 154, ((5S,7S)-5-(4-chloro-1-methyl-1H-pyrazol-3-yl)-7-fluoro-6,7-dihydro-5H-pyrrolo[1,2-b][1,2,4]triazol-2-yl)(cyclopropyl)methanone]"
10,20,"COc1cccc([C@@H]2C[C@H](F)c3nc(C(=O)C4CC4)nn32)c1 (single isomer, unassigned) [Example 156]"
11,61,"N#Cc1ccccc1[C@@H]1C[C@H](F)c2nc(C(=O)C3CC3)nn21 (single isomer, unassigned) [Example 124]"
12,3.7,"N#CCC1(C(=O)c2nc3n(n2)[C@H](c2ccccc2)C[C@@H]3F)CC1 (single isomer, unassigned) [Example 83]"
13,560,"O=C(c1nc2n(n1)[C@H](c1ccccc1)C[C@H]2Cl)C1CC1 (single isomer, unassigned) [Example 117]"
14,4.9,"O=C(c1nc2n(n1)[C@H](c1ccccc1)C[C@@H]2F)C1(CO)CC1 (single isomer, unassigned) [Example 72]"
15,3.5,"O=C(c1nc2n(n1)[C@H](c1ccccc1Cl)C[C@@H]2F)C1CC1 [Example 100, cyclopropyl-[(5S,7S)-5-(2-chlorophenyl)-7-fluoro-6,7-dihydro-5H-pyrrolo[1,2-b][1,2,4]triazol-2-yl]methanone]"
16,180,"O=C(c1nc2n(n1)[C@H](c1ccccc1)C[C@H]2O)C1CC1 (single isomer, unassigned) [Example 88]"

row,Ki [nM],SMILES
1,3.6,"O=C(c1nc2n(n1)[C@H](c1ccccc1)C[C@@H]2F)C1CC12CC2 (single isomer, unassigned) [Example 96]"
2,18,"O=C(c1nc2n(n1)[C@H](c1ccccc1)C[C@@H]2F)C1CC1c1ccccn1 (stereo partly drawn) [Example 74, [2-(2-pyridyl)cyclopropyl]-[(5S,7S)-7-fluoro-5-phenyl-6,7-dihydro-5H-pyrrolo[1,2-b][1,2,4]triazol-2-yl]methanone]"
3,15,"C[C@H]1C[C@@H]1C(=O)c1nc2n(n1)[C@H](c1ccccc1)C[C@@H]2F (single isomer, unassigned) [Example 89]"
4,2.7,"N#CC1(C(=O)c2nc3n(n2)[C@H](c2ccccc2)C[C@@H]3F)CC1 (single isomer, unassigned) [Example 95]"
5,150,"CO[C@H]1C[C@@H](c2ccccc2)n2nc(C(=O)C3CC3)nc21 (single isomer, unassigned) [Example 84]"
6,260,"O=C(c1nc2n(n1)C(c1ccccc1)CCC2)C1CC1 (stereo not drawn) [Example 145, cyclopropyl-(5-phenyl-5,6,7,8-tetrahydro-[1,2,4]triazolo[1,5-a]pyridin-2-yl)methanone]"
7,3.6,"O=C(c1nc2n(n1)[C@H](c1c(F)ccc(F)c1F)C[C@@H]2F)C1CC1 (single isomer, unassigned) [Example 102]"
8,33,"O=C(c1nc2n(n1)[C@H](c1ccccc1)C[C@@H]2F)C1C2CC(F)(F)CC21 (single isomer, unassigned) [Example 80]"
9,17,"O=C(c1nc2n(n1)[C@H](c1ccccc1)C[C@@H]2F)C1CC2(C1)CC2(F)F (stereo partly drawn) [Example 70, (2,2-difluorospiro[2.3]hexan-5-yl)-[(5S,7S)-7-fluoro-5-phenyl-6,7-dihydro-5H-pyrrolo[1,2-b][1,2,4]triazol-2-yl]methanone]"
10,3.5,"O=C(c1nc2n(n1)[C@H](c1ccccc1)C[C@@H]2F)C1CC2(CC2)C1 (single isomer, unassigned) [Example 76]"
11,380,"Cc1oncc1C1CC(F)c2nc(C(=O)C3CC3)nn21 (stereo not drawn) [Example 153, cyclopropyl(7-fluoro-5-(5-methylisoxazol-4-yl)-6,7-dihydro-5H-pyrrolo[1,2-b][1,2,4]triazol-2-yl)methanone]"
12,10,"O=C(c1nc2n(n1)[C@H](c1ccccc1)C[C@@H]2F)C1CC2C(C1)C2(F)F (single isomer, unassigned) [Example 82]"
13,2.9,"O=C(c1nc2n(n1)[C@H](c1ccccc1)C[C@@H]2F)C1(C2CC2)CC1 (single isomer, unassigned) [Example 99]"
14,780,"O=C(c1nc2n(n1)[C@@H](c1ccccc1)C[C@H]2F)C1CC(F)(F)C1 (single isomer, unassigned) [Example 64]"
15,150,"O=C(c1nc2n(n1)[C@H](c1ccccc1)C[C@@H]2F)[C@@H]1C[C@H]2CC[C@@H]1O2 (single isomer, unassigned) [Example 140]"

# Same assay, conditions: tight-binding apparent inhibition constant (Ki app, Morrison equation); 50 nM enzyme, 50 μM ATP, 2 hours incubation
row,Ki [nM],SMILES
1,940,"CCC(=O)c1cn2c(n1)C(c1ccccc1)CC2 (stereo not drawn) [Example 17, 1-(7-phenyl-6,7-dihydro-5H-pyrrolo[1,2-a]imidazol-2-yl)propan-1-one]"
2,11.5,"CC(C)(C)C(=O)c1nc2n(n1)C(c1ccccc1)CC2F (stereo not drawn) [Example 44, 1-(7-fluoro-5-phenyl-6,7-dihydro-5H-pyrrolo[1,2-b][1,2,4]triazol-2-yl)-2,2-dimethyl-propan-1-one]"
3,2180,"CCC(=O)c1cc2n(n1)CC[C@H]2c1ccccc1 (single isomer, unassigned) [Example 23]"
4,28,"CC1(C(=O)c2nc3n(n2)[C@H](c2ccccc2)C[C@@H]3F)COC1 (single isomer, unassigned) [Example 54]"
5,14.3,"CC(C)C(=O)c1nc2n(n1)C(c1ccccc1)CC2F (stereo not drawn) [Example 45, 1-(7-fluoro-5-phenyl-6,7-dihydro-5H-pyrrolo[1,2-b][1,2,4]triazol-2-yl)-2-methyl-propan-1-one]"
6,44.2,"CCC(=O)c1cc2n(n1)C(c1ccccc1)CC2 (stereo not drawn) [Example 19, 1-(6-phenyl-5,6-dihydro-4H-pyrrolo[1,2-b]pyrazol-2-yl)propan-1-one]"
7,> 10000,"CC1(C(=O)c2nc3n(n2)[C@@H](c2ccccc2)C[C@H]3F)COC1 (single isomer, unassigned) [Example 55]"
8,> 10000,"CCC(=O)c1cc2n(n1)CC[C@@H]2c1ccccc1 (single isomer, unassigned) [Example 24]"
